Experimental data: patent publication US5250546A, “Amino-alcohol derivatives and processes for their preparation” (Nippon Chemiphar Co., Ltd., priority 1984, dated 1993)

Legend:
[1] = Acute toxicity, up-and-down method; conditions: mouse, in vivo; iv (caudal vein), ddN male mice
Experimental: Using ddN male mice, the acute toxicity level of each test compound was determined in accordance with an up-and-down method. Some of the test compounds used were dissolved in physiological saline and administered through the caudal vein.

[2] = tested on: glutamic acid at neuromuscular junctions of crayfish (opener muscles of the first walking legs); experiment: Blocking effects against glutamic acid at neuromuscular junctions of crayfish (L-glutamic acid-induced depolarization); format: cell-based; conditions: 5 min; suppression rate of depolarization by L-glutamic acid (10^-4 M); 5-minute pretreatment with test compound 2×10^-4 M
Excerpt: The opener muscles of the first walking legs of crayfish were used as experimental materials. The neuromuscular sample was held in a bath in which a physiological solution [composition (mM): NaCl (195), CaCl2 (18), KCl (5.4), tris-maleate buffer (pH 7.5; 10), glucose (11)] for use with the crayfish was perfused at room temperature and at a constant flow rate. A glass micro-electrode filled with a 3M-KCl solution was inserted in a central part of the muscle fiber to intracellularly record changes in the potential of the muscular cell membrane.
The blocking effect of each test compound against glutamic acid was evaluated in terms of the suppression rate to depolarization which was induced by bath-applying L-glutamic acid (10^-4 M) in a 5-minute pretreatment with a solution of the test compound (2×10^-4 M).

[3] = tested on: anemic decerebrate rigidity (Wistar male rats); experiment: Effects on anemic decerebrate rigidity (EMG of M. triceps brachii); format: in vivo; conditions: Rattus norvegicus, iv, 10 min; 3 mg/kg through the femoral vein; 10 minutes after administration; read-out: Suppression rate (rigidity, EMG pulse area)
Experimental: An anemic decerebrate rigidity sample was prepared principally in accordance with the procedure of Fukuda et al. [Japan. […] Wistar male rats (body weight: 270 to 350 g) were held on their backs and incised at their cervices under etherization. After the trachea and common carotid arteries were exposed, the trachea was cannulated and the bilateral common carotid arteries and esophagus were then double-ligated and cut. Thereafter, its occipital bone was exposed through which a circular hole was bored to double-ligate the centrally extending basilar artery. As each rat started coming out of anesthetization, its front limbs became rigid. Measurement was conducted by recording electromyographic (EMG) response from the muscle of the forelimb (M. triceps brachii) of the rat in the rigid state. The EMG pulses were converted to accumulated values every 10 seconds and recorded as a histogram on a recorder.
The effect of each test compound on the rigidity was evaluated in terms of the suppression rate. This rate was calculated first by determining the area of a decreased EMG pulse part on the histogram upon passage of 10 minutes after administration of a physiological saline solution of each test compound (3 mg/kg) through the femoral vein and then in accordance with the following equation.
A: EMG pulse area when no test compound was administered (control).

| Compound | LD50 [1] | inhibition at 200 µM [2] | inhibition in vivo at 3 mg/kg [3] |
| --- | --- | --- | --- |
| CC(C)CC[C@H](NCCN1CCCCC1)[C@H](O)c1ccccc1.Cl.Cl (racemic) [Compound 41, (1RS,2SR)-5-methyl-1-phenyl-2-(2-piperidinoethylamino)hexan-1-ol dihydrochloride] | 29.5 mg/kg | 94% | 23.5% |
| CC(C)CC[C@H](NCCN1CCCC1)[C@H](O)c1ccccc1.Cl.Cl (racemic) [Compound 43, (1RS,2SR)-5-methyl-1-phenyl-2-(2-pyrrolidinoethylamino)hexan-1-ol dihydrochloride] | 31.9 mg/kg | 95% | 16.1% |
| CC(C)CC[C@H](NCCCN1CCCCCC1)[C@H](O)c1ccccc1.Cl.Cl (racemic) [Compound 45, (1RS,2SR)-5-methyl-2-[3-(perhydroazepin-1-yl)propylamino]-1-phenylhexan-1-ol dihydrochloride] | 12.8 mg/kg | 100% | 90.5% |
